Assay results published in patent US12109176B1, “Effect of glycerol on biofilm forming bacteria and fungi that changes the microbes sensitivity to pro and anti-biofilm non-toxic, non-bonded plasma amino acids and amino acid derivatives” (priority 2023, dated 2024).
Entries after “also recorded” stand apart in the source; their conditions may differ.

Key:
[1] = system: bacterial (S. aureus) biofilm; experiment: Bacterial biofilm inhibition assay; assay type: cell-based, Staphylococcus aureus
Experimental: (§1) Two types of biofilm assays were performed: an inhibition assay and a disruption assay. The inhibition assay assesses the compound's ability to prevent biofilm development, while the disruption assay assesses the compound's ability to break up an existing mature biofilm.
(§2) All bacterial biofilm solutions were prepared in Tryptic Soy Broth (TSB), supplemented with 1% glucose (henceforth referred to as TSB-G). All subsequent procedures were performed in a manner that maintained sterility. A solution of each amino acid or an amino acid derivative to be tested was prepared in weight to volume concentrations ranging from 0.1-5.0%. Amino acids and amino acid derivatives were also tested in combinations. Compound solutions were homogenized with gentle agitation in the dark (4° C., 24 hours) before use.
(§3) 32 Amino acids and 2 amino acid derivatives of the amino acid serine that occur freely in human blood were tested. […] 31 of the 32 amino acids that were tested were the L-Isomers. Glycine has no stereoisomers. The 2 amino acid derivatives, ethanolamine and phosphoethanolamine were also tested. All biofilm assays were performed using 384-well non-tissue culture-treated polystyrene plates. The fungal species tested are as follows: Candida albicans, Candida guilliermondii, Candida parapsilosis, Candida glabrata, Candida tropicalis and Candida dubliniensis. The bacterial species tested are as follows: Staphylococci (standard wild type and methicillin-resistant strain USA300), Escherichia coli, Pseudomonas aeruginosa and Staphylococcus epidermidis.
(§4) Bacterial strains were streaked on Blood Agar plates (5% sheep blood in Tryptic Soy Broth) and incubated at 37° C. for 24 hours. A single colony from each strain to be tested was inoculated in a TSB broth and grown for 12 hours, at 37° C. with shaking (225 rpm). For the bacterial biofilm inhibition assays, 1 μL of saturated overnight cell culture was added to either 80 μL of TSB-G, or TSB-G supplemented with the amino acid compound solution to be tested, in a 384-well plate. The cells were allowed to adhere to the plate for 60 minutes at 37° C. without shaking. The media was carefully aspirated and 80 μL of TSB-G, or TSB-G supplemented with the amino acid compound solution was added to the plate. The plate was further incubated for 24 hours at 37° C. without shaking. Media was carefully aspirated and the biofilm was measured by optical density at 600 nm. Eight or twelve replicates were performed for each tested condition and the reported values are normalized to the control (TSB-G media only). For the bacterial biofilm disruption assays, 80 µL of TSB-G was added to the plate, along with 1 μL of overnight cell culture. The cells were allowed to adhere to the plate for 60 minutes at 37° C. with no shaking. The media was carefully aspirated and 80 μL of TSB-G was added to the plate. The plate was further incubated for 24 hours at 37° C. with no shaking. Media was carefully aspirated from the mature biofilm and 80 μL of TSB-G, or TSB-G supplemented with the amino acid to be tested, was gently added to the plate. The plate was further incubated for 24 hours at 37° C. without shaking. Media was aspirated and the biofilm was measured by optical density at 600 nm. Twelve replicates were performed for each tested condition and the reported values are normalized to the control (TSB-G media only).

[2] = system: bacterial (S. aureus) biofilm; experiment: Bacterial biofilm disruption assay; assay type: cell-based, Staphylococcus aureus
Experimental: as §1, §2, §3, §4

bacterial biofilm = experiment: In vitro testing on bacterial biofilm (inhibition and/or disruption); assay type: cell-based; details: in vitro testing
Experimental: as §1, §2, §3, §4

[3] = system: fungal biofilm (C. albicans); experiment: Fungal biofilm disruption assay; assay type: cell-based, Candida albicans
Experimental: as §1, §2, §3
(§5) Fungal strains were streaked on Yeast Peptone Dextrose (YPD) agar plates and incubated at 30° C. for 48 hours. A single colony from each strain to be tested was inoculated into YPD broth and grown for 12 hours at 30° C., shaking at 225 rpm. […] The cells were allowed to adhere to the plate for 90 minutes at 37° C. with shaking (350 rpm). […] The plate was further incubated for 24 hours at 37° C. with shaking (350 rpm). Media was carefully aspirated and the biofilm was measured by optical density at 600 nm. […] The cells were allowed to adhere to the plate for 90 minutes at 37° C. with shaking (350 rpm). […] The plate was further incubated for 24 hours at 37° C. with shaking (350 rpm). […] The plate was further incubated for 24 hours at 37° C. with shaking (350 rpm). Media was carefully aspirated, and the biofilm was measured by optical density at 600 nm.

[4] = system: bacterial (S. aureus) biofilm and fungal biofilm (C. albicans); experiment: Biofilm inhibition assay, bacterial and fungal taken together; assay type: cell-based; details: symbol marks the assay
Experimental: as §1, §2, §3, §5
as §4, with “plate.” for “plate. The plate was further incubated for 24 hours at 37° C. without shaking. Media was aspirated and the biofilm was measured by optical density at 600 nm. Twelve replicates were performed for each tested condition and the reported values are normalized to the control (TSB-G media only).”

[5] = system: bacterial and fungal biofilm; experiment: In vitro testing on bacterial and fungal biofilm (assay not told apart); assay type: cell-based; details: in vitro testing
Experimental: as §1, §2, §3, §5
as §4, with “plate.” for “plate. The plate was further incubated for 24 hours at 37° C. without shaking. Media was aspirated and the biofilm was measured by optical density at 600 nm. Twelve replicates were performed for each tested condition and the reported values are normalized to the control (TSB-G media only).”

fungal biofilm = experiment: In vitro testing on fungal biofilm (inhibition and/or disruption); assay type: cell-based; details: in vitro testing
Experimental: as §1, §2, §3, §5

[6] = Table F, in the presence of a sufficient concentration of glycerol
[7] = Table D, Neutral = no effect on the biofilm
[8] = Table E, in the absence of an infusion of glycerol

SMILES	Reduce or Inhibit B Biofilm (dots: Disruption Biofilm Assay) ([2]; Table D, 0.1 to 5.0%)	Reduce or Inhibit B Biofilm (dots: Disruption Biofilm Assay) [2, 6]	effect on bacterial biofilm (in words) (bacterial biofilm)	Reduce or Inhibit F Biofilm (dots: Disruption Biofilm Assay) ([3]; Table D, 0.1 to 5.0%)	Neutral (square: Inhibition Biofilm Assay) [4, 7]	Neutral (square: Inhibition Biofilm Assay) [4, 8]	Neutral (square: Inhibition Biofilm Assay) [4, 6]	further results
NC(CCCC(=O)O)C(=O)O (stereo not shown) [2 Aminoadipic Acid, 2-aminoadipic acid]	● (Single dot [ie. ●] signifies little effect on the Disruption Biofilm Assay (from about 10 to less than 30%))	● (Single dot [ie. ●] signifies little effect on the Disruption Biofilm Assay (from about 10 to less than 30%))	antibacterial biofilm effect					Reduce or Inhibit B Biofilm (squares: Inhibition Biofilm Assay) ([1]; Table D, 0.1 to 5.0%): ▪ (Single square [ie. ▪] signifies little effect on the Inhibition Biofilm Assay (from about 10 to less than 30%)); Reduce or Inhibit B Biofilm (squares: Inhibition Biofilm Assay) [1, 6]: ▪ (Single square [ie. ▪] signifies little effect on the Inhibition Biofilm Assay (from about 10 to less than 30%))
C[C@H](N)C(=O)O [Alanine, L-alanine]			promoted bacterial biofilm formation	● (Single dot [ie. ●] signifies little effect on the Disruption Biofilm Assay (from about 10 to less than 30%))	▪ (Single square [ie. ▪] signifies little effect on the Inhibition Biofilm Assay (from about 10 to less than 30%))	▪ (Single square [ie. ▪] signifies little effect on the Inhibition Biofilm Assay (from about 10 to less than 30%))	▪ (Single square [ie. ▪] signifies little effect on the Inhibition Biofilm Assay (from about 10 to less than 30%))	
N[C@@H](CCSC[C@H](N)C(=O)O)C(=O)O [Cystathionine, L-cystathionine]	● (Single dot [ie. ●] signifies little effect on the Disruption Biofilm Assay (from about 10 to less than 30%))	● (Single dot [ie. ●] signifies little effect on the Disruption Biofilm Assay (from about 10 to less than 30%))	antibacterial biofilm effect		▪ (Single square [ie. ▪] signifies little effect on the Inhibition Biofilm Assay (from about 10 to less than 30%))	▪ (Single square [ie. ▪] signifies little effect on the Inhibition Biofilm Assay (from about 10 to less than 30%))	▪ (Single square [ie. ▪] signifies little effect on the Inhibition Biofilm Assay (from about 10 to less than 30%))	
N[C@@H](Cc1c[nH]cn1)C(=O)O [Histidine, L-histidine]					▪ (Single square [ie. ▪] signifies little effect on the Inhibition Biofilm Assay (from about 10 to less than 30%))	▪ (Single square [ie. ▪] signifies little effect on the Inhibition Biofilm Assay (from about 10 to less than 30%))	▪ (Single square [ie. ▪] signifies little effect on the Inhibition Biofilm Assay (from about 10 to less than 30%))	effect on bacterial and fungal biofilm (in words) [5]: neutral, having no effect on biofilm; also recorded: neutral
N[C@@H](CCS)C(=O)O [Homocysteine, L-homocysteine]								effect on fungal biofilm (in words) (fungal biofilm): antifungal biofilm effects
N[C@@H](Cc1ccccc1)C(=O)O [Phenylalanine, L-phenylalanine]			promoted bacterial biofilm formation					Promote B Biofilm (squares: Inhibition Biofilm Assay) ([1]; Table D, 0.1 to 5.0%): ▪ (Single square [ie. ▪] signifies little effect on the Inhibition Biofilm Assay (from about 10 to less than 30%)); Promote B Biofilm (squares: Inhibition Biofilm Assay) [1, 8]: ▪ (Single square [ie. ▪] signifies little effect on the Inhibition Biofilm Assay (from about 10 to less than 30%))
NCCOP(=O)(O)O [Phospho-ethanolamine, phosphoethanolamine]	● (Single dot [ie. ●] signifies little effect on the Disruption Biofilm Assay (from about 10 to less than 30%))	● (Single dot [ie. ●] signifies little effect on the Disruption Biofilm Assay (from about 10 to less than 30%))	antibacterial biofilm effect					Reduce or Inhibit B Biofilm (squares: Inhibition Biofilm Assay) ([1]; Table D, 0.1 to 5.0%): ▪ (Single square [ie. ▪] signifies little effect on the Inhibition Biofilm Assay (from about 10 to less than 30%)); Reduce or Inhibit B Biofilm (squares: Inhibition Biofilm Assay) [1, 6]: ▪ (Single square [ie. ▪] signifies little effect on the Inhibition Biofilm Assay (from about 10 to less than 30%))
N[C@@H](CO)C(=O)O [Serine, L-serine]			promoted bacterial biofilm formation	● (Single dot [ie. ●] signifies little effect on the Disruption Biofilm Assay (from about 10 to less than 30%))				Reduce or Inhibit F Biofilm (dots: Disruption Biofilm Assay) [3, 6]: ● (Single dot [ie. ●] signifies little effect on the Disruption Biofilm Assay (from about 10 to less than 30%))
N[C@@H](Cc1c[nH]c2ccccc12)C(=O)O [Tryptophan, L-tryptophan]			promoted bacterial biofilm formation	● (Single dot [ie. ●] signifies little effect on the Disruption Biofilm Assay (from about 10 to less than 30%))				Reduce or Inhibit F Biofilm (dots: Disruption Biofilm Assay) [3, 6]: ● (Single dot [ie. ●] signifies little effect on the Disruption Biofilm Assay (from about 10 to less than 30%))
N[C@@H](Cc1ccc(O)cc1)C(=O)O [Tyrosine, L-tyrosine]								effect on bacterial and fungal biofilm (in words) [5]: neutral effect on biofilm; effect on bacterial and fungal biofilm (in words) ([5]; listed as tyrosine): neutral, having no effect on biofilm
